Measurements from the CheMixHub ionic liquid set.
± gives the uncertainty stated by the source.

Assay: xn = mol fraction of the nth substance listed

Work on `F[B-](F)(F)F.[Li+]` + CCCC[n+]1ccn(C)c1.[I-] yielded an electrical conductivity (298.15 K, 101 kPa, x1 = 0.2) of 0.0449 ± 0.0063 S/m, an electrical conductivity (308.15 K, 101 kPa, x1 = 0.1) of 0.0454 ± 0.0064 S/m and an electrical conductivity (323.15 K, 101 kPa, x1 = 0.2) of 0.079 ± 0.011 S/m.
For `CCCCCC[n+]1ccn(C)c1.F[B-](F)(F)F` + CCCN, the viscosity (298.15 K, 101 kPa, x2 = 0) was 171.8 ± 8.1 mPa·s.
`COP(=O)([O-])OC.Cn1cc[n+](C)c1` + CCCO showed a viscosity (293.15 K, 101 kPa, x2 = 0.3018) of 116.9 ± 3.9 mPa·s, a viscosity (298.15 K, 101 kPa, x2 = 0) of 291 ± 18 mPa·s and a viscosity (303.15 K, 101 kPa, x2 = 0.1993) of 115.9 ± 3.9 mPa·s. It also gave a viscosity (303.15 K, 101 kPa, x2 = 0.5002) of 34.18 ± 0.75 mPa·s, a viscosity (303.15 K, 101 kPa, x2 = 0.5996) of 21.48 ± 0.47 mPa·s and a viscosity (308.15 K, 101 kPa, x2 = 0.1993) of 90.1 ± 2.5 mPa·s. For the same compound, the viscosity (313.15 K, 101 kPa, x2 = 0.5996) was 15.82 ± 0.34 mPa·s, the viscosity (318.15 K, 101 kPa, x2 = 0.098) was 74.8 ± 1.9 mPa·s and the viscosity (318.15 K, 101 kPa, x2 = 0.4) was 30.15 ± 0.67 mPa·s. The viscosity (318.15 K, 101 kPa, x2 = 0.5002) was 20.5 ± 0.45 mPa·s, the viscosity (323.15 K, 101 kPa, x2 = 0.3018) was 33.41 ± 0.75 mPa·s and the viscosity (323.15 K, 101 kPa, x2 = 0.5996) was 12.11 ± 0.26 mPa·s. It also gave a viscosity (323.15 K, 101 kPa, x2 = 0.799) of 4.88 ± 0.1 mPa·s.
With `COP(=O)([O-])OC.Cn1cc[n+](C)c1` + CCCO + O the viscosity (298.15 K, 100 kPa, x2 = 0.249, x3 = 0.2451) was 90 ± 12 mPa·s, the viscosity (323.15 K, 100 kPa, x2 = 0.15, x3 = 0.1498) was 81 ± 10 mPa·s and the viscosity (333.15 K, 100 kPa, x2 = 0.1, x3 = 0.0998) was 85 ± 11 mPa·s.
`CC(=O)[O-].CCCC[N+](CCCC)(CCCC)CCCC` + CCCOCC(C)O gave an electrical conductivity (248.15 K, 101 kPa, x1 = 0.006949) of 0.000652 ± 1e-06 S/m, an electrical conductivity (248.15 K, 101 kPa, x1 = 0.008744) of 0.000811 ± 1e-06 S/m and an electrical conductivity (248.15 K, 101 kPa, x1 = 0.02598) of 0.00218 ± 1e-05 S/m. The electrical conductivity (248.15 K, 101 kPa, x1 = 0.03298) was 0.00267 ± 1e-05 S/m, the electrical conductivity (248.15 K, 101 kPa, x1 = 0.06584) was 0.00439 ± 1e-05 S/m and the electrical conductivity (248.15 K, 101 kPa, x1 = 0.09163) was 0.00514 ± 1e-05 S/m. The electrical conductivity (248.15 K, 101 kPa, x1 = 0.1232) was 0.00547 ± 1e-05 S/m, the electrical conductivity (248.15 K, 101 kPa, x1 = 0.1599) was 0.00531 ± 1e-05 S/m and the electrical conductivity (248.15 K, 101 kPa, x1 = 0.2312) was 0.0042 ± 1e-05 S/m. It also gave an electrical conductivity (258.15 K, 101 kPa, x1 = 0.006949) of 0.00115 ± 1e-05 S/m, an electrical conductivity (258.15 K, 101 kPa, x1 = 0.008744) of 0.00143 ± 1e-05 S/m and an electrical conductivity (258.15 K, 101 kPa, x1 = 0.02598) of 0.00399 ± 1e-05 S/m. The electrical conductivity (258.15 K, 101 kPa, x1 = 0.03298) was 0.00493 ± 1e-05 S/m, the electrical conductivity (258.15 K, 101 kPa, x1 = 0.06584) was 0.00847 ± 1e-05 S/m and the electrical conductivity (258.15 K, 101 kPa, x1 = 0.09163) was 0.01022 ± 1e-05 S/m. It also gave an electrical conductivity (258.15 K, 101 kPa, x1 = 0.1232) of 0.01125 ± 1e-05 S/m, an electrical conductivity (258.15 K, 101 kPa, x1 = 0.1599) of 0.01128 ± 1e-05 S/m and an electrical conductivity (258.15 K, 101 kPa, x1 = 0.2312) of 0.00942 ± 1e-05 S/m. The electrical conductivity (268.15 K, 101 kPa, x1 = 0.006949) was 0.00182 ± 1e-05 S/m, the electrical conductivity (268.15 K, 101 kPa, x1 = 0.008744) was 0.00229 ± 1e-05 S/m and the electrical conductivity (268.15 K, 101 kPa, x1 = 0.02598) was 0.00661 ± 1e-05 S/m. It also gave an electrical conductivity (268.15 K, 101 kPa, x1 = 0.03298) of 0.00825 ± 1e-05 S/m, an electrical conductivity (268.15 K, 101 kPa, x1 = 0.06584) of 0.01473 ± 1e-05 S/m and an electrical conductivity (268.15 K, 101 kPa, x1 = 0.09163) of 0.01821 ± 1e-05 S/m. It also gave an electrical conductivity (268.15 K, 101 kPa, x1 = 0.1232) of 0.02062 ± 1e-05 S/m, an electrical conductivity (268.15 K, 101 kPa, x1 = 0.1599) of 0.02133 ± 1e-05 S/m and an electrical conductivity (268.15 K, 101 kPa, x1 = 0.2312) of 0.01883 ± 1e-05 S/m. For the same compound, the electrical conductivity (278.15 K, 101 kPa, x1 = 0.006949) was 0.00269 ± 1e-05 S/m, the electrical conductivity (278.15 K, 101 kPa, x1 = 0.008744) was 0.0034 ± 0.0001 S/m and the electrical conductivity (278.15 K, 101 kPa, x1 = 0.02598) was 0.01016 ± 1e-05 S/m. For the same compound, the electrical conductivity (278.15 K, 101 kPa, x1 = 0.03298) was 0.01277 ± 1e-05 S/m, the electrical conductivity (278.15 K, 101 kPa, x1 = 0.06584) was 0.02353 ± 1e-05 S/m and the electrical conductivity (278.15 K, 101 kPa, x1 = 0.09163) was 0.02971 ± 1e-05 S/m. It also gave an electrical conductivity (278.15 K, 101 kPa, x1 = 0.1232) of 0.03448 ± 1e-05 S/m, an electrical conductivity (278.15 K, 101 kPa, x1 = 0.1599) of 0.03666 ± 1e-05 S/m and an electrical conductivity (278.15 K, 101 kPa, x1 = 0.2312) of 0.03401 ± 1e-05 S/m. For the same compound, the electrical conductivity (288.15 K, 101 kPa, x1 = 0.006949) was 0.00374 ± 1e-05 S/m, the electrical conductivity (288.15 K, 101 kPa, x1 = 0.008744) was 0.00478 ± 1e-05 S/m and the electrical conductivity (288.15 K, 101 kPa, x1 = 0.02598) was 0.01461 ± 1e-05 S/m. For the same compound, the electrical conductivity (288.15 K, 101 kPa, x1 = 0.03298) was 0.01849 ± 1e-05 S/m, the electrical conductivity (288.15 K, 101 kPa, x1 = 0.06584) was 0.03502 ± 1e-05 S/m and the electrical conductivity (288.15 K, 101 kPa, x1 = 0.09163) was 0.04505 ± 1e-05 S/m. The electrical conductivity (288.15 K, 101 kPa, x1 = 0.1232) was 0.05341 ± 1e-05 S/m, the electrical conductivity (288.15 K, 101 kPa, x1 = 0.1599) was 0.05816 ± 1e-05 S/m and the electrical conductivity (288.15 K, 101 kPa, x1 = 0.2312) was 0.05632 ± 1e-05 S/m. For the same compound, the electrical conductivity (298.15 K, 101 kPa, x1 = 0.006949) was 0.00498 ± 1e-05 S/m, the electrical conductivity (298.15 K, 101 kPa, x1 = 0.008744) was 0.00635 ± 1e-05 S/m and the electrical conductivity (298.15 K, 101 kPa, x1 = 0.02598) was 0.01995 ± 1e-05 S/m. The electrical conductivity (298.15 K, 101 kPa, x1 = 0.03298) was 0.02547 ± 1e-05 S/m, the electrical conductivity (298.15 K, 101 kPa, x1 = 0.06584) was 0.04947 ± 1e-05 S/m and the electrical conductivity (298.15 K, 101 kPa, x1 = 0.09163) was 0.06468 ± 1e-05 S/m. The electrical conductivity (298.15 K, 101 kPa, x1 = 0.1232) was 0.07808 ± 1e-05 S/m, the electrical conductivity (298.15 K, 101 kPa, x1 = 0.1599) was 0.08671 ± 1e-05 S/m and the electrical conductivity (298.15 K, 101 kPa, x1 = 0.2312) was 0.08711 ± 1e-05 S/m. For the same compound, the electrical conductivity (308.15 K, 101 kPa, x1 = 0.006949) was 0.00637 ± 1e-05 S/m, the electrical conductivity (308.15 K, 101 kPa, x1 = 0.008744) was 0.00816 ± 1e-05 S/m and the electrical conductivity (308.15 K, 101 kPa, x1 = 0.02598) was 0.02625 ± 1e-05 S/m. It also gave an electrical conductivity (308.15 K, 101 kPa, x1 = 0.03298) of 0.03367 ± 1e-05 S/m, an electrical conductivity (308.15 K, 101 kPa, x1 = 0.06584) of 0.06676 ± 1e-05 S/m and an electrical conductivity (308.15 K, 101 kPa, x1 = 0.09163) of 0.08851 ± 1e-05 S/m. It also gave an electrical conductivity (308.15 K, 101 kPa, x1 = 0.1232) of 0.1086 ± 1e-05 S/m, an electrical conductivity (308.15 K, 101 kPa, x1 = 0.1599) of 0.1227 ± 1e-05 S/m and an electrical conductivity (308.15 K, 101 kPa, x1 = 0.2312) of 0.1274 ± 1e-05 S/m. For the same compound, the electrical conductivity (313.15 K, 101 kPa, x1 = 0.006949) was 0.0071 ± 0.0001 S/m, the electrical conductivity (313.15 K, 101 kPa, x1 = 0.008744) was 0.00913 ± 1e-05 S/m and the electrical conductivity (313.15 K, 101 kPa, x1 = 0.02598) was 0.02965 ± 1e-05 S/m. It also gave an electrical conductivity (313.15 K, 101 kPa, x1 = 0.03298) of 0.03815 ± 1e-05 S/m, an electrical conductivity (313.15 K, 101 kPa, x1 = 0.06584) of 0.07641 ± 1e-05 S/m and an electrical conductivity (313.15 K, 101 kPa, x1 = 0.09163) of 0.1011 ± 1e-05 S/m. For the same compound, the electrical conductivity (313.15 K, 101 kPa, x1 = 0.1232) was 0.126 ± 1e-05 S/m, the electrical conductivity (313.15 K, 101 kPa, x1 = 0.1599) was 0.1436 ± 1e-05 S/m and the electrical conductivity (313.15 K, 101 kPa, x1 = 0.2312) was 0.1513 ± 1e-05 S/m.
